Literature values, collected in patent US20110224120A1, “WASHING, CLEANING, POST-TREATING OR AUXILIARY WASHING AGENT CONTAINING SILVER” (Henkel AG & Co. KGaA, priority 2008, published 2011).

Details: Kanicky et al., Langmuir 2000, 16, 172-177

For `CCCCCCCCCCCCCC(=O)O` [myristic acid], the pKa value is listed as 8.15.
